Structures can show the parent of a compound that is named as a salt.
What follows are molecules tested against T1, HCV NS3/4A protease complex, BMS strain (genotype 1a) (UniProt P27958, C1454S/C1711G, species not given/STRAIN_BMS) (assay: Recombinant HCV NS3/4A protease complex FRET peptide assay, BMS strain). Details: NS3/4A BMS Strain; activity range classes.
T1 construct: b1001: DNA encoding the recombinant HCV NS3/4A protease complex (amino acids 1027 to 1711) ... a three-lysine solubilizing tail was added at the 3′-end of the NS4A coding region; fused on or other part: Three-lysine solubilising tail at the C-terminus of NS4A; A His tag is implied by the pET21b vector and Ni-NTA purification
Assay type: biochemical
Description: Recombinant HCV NS3/4A Protease Complex FRET Peptide Assay
The purpose of this in vitro assay was to measure the inhibition of HCV NS3 protease complexes, derived from the BMS strain, H77C strain or J416S strain, as described below, by compounds of the present invention. This assay provides an indication of how effective compounds of the present invention would be in inhibiting HCV proteolytic activity.
Serum from an HCV-infected patient was obtained from Dr. T. Wright, San Francisco Hospital. An engineered full-length cDNA (compliment deoxyribonucleic acid) template of the HCV genome (BMS strain) was constructed from DNA fragments obtained by reverse transcription-PCR (RT-PCR) of serum RNA (ribonucleic acid) and using primers selected on the basis of homology between other genotype 1a strains. From the determination of the entire genome sequence, a genotype 1a was assigned to the HCV isolate according to the classification of Simmonds et al. (See P Simmonds, K A Rose, S Graham, S W Chan, F McOmish, B C Dow, E A Follett, P L Yap and H Marsden, J. Clin. Microbiol., 31(6), 1493–1503 (1993)). […] The infectious clones, H77C (1a genotype) and J4L6S (1b genotype) were obtained from R. Purcell (NIH) and the sequences are published in Genbank (AAB67036, see Yanagi, M., Purcell, R. H., Emerson, S. U. and Bukh, J. Proc. Natl. Acad. Sci. U.S.A. 94(16), 8738–8743 (1997); AF054247, see Yanagi, M., St Claire, M., Shapiro, M., Emerson, S. U., Purcell, R. H. and Bukh, J, Virology 244 (1), 161–172. (1998)).
The H77C and J4L6S strains were used for production of recombinant NS3/4A protease complexes. DNA encoding the recombinant HCV NS3/4A protease complex (amino acids 1027 to 1711) for these strains were manipulated as described by P. Gallinari et al. (see Gallinari P, Paolini C, Brennan D, Nardi C, Steinkuhler C, De Francesco R. Biochemistry. 38(17):5620–32, (1999)). Briefly, a three-lysine solubilizing tail was added at the 3′-end of the NS4A coding region. The cysteine in the P1 position of the NS4A-NS4B cleavage site (amino acid 1711) was changed to a glycine to avoid the proteolytic cleavage of the lysine tag. Furthermore, a cysteine to serine mutation was introduced by PCR at amino acid position 1454 to prevent the autolytic cleavage in the NS3 helicase domain. The variant DNA fragment was cloned in the pET21b bacterial expression vector (Novagen) and the NS3/4A complex was expressed in Escherichia coli strain BL21 (DE3) (Invitrogen) following the protocol described by P. Gallinari et al. (see Gallinari P, Brennan D, Nardi C, Brunetti M, Tomei L, Steinkuhler C, De Francesco R., J. Virol. 72(8):6758–69 (1998)) with modifications. Briefly, NS3/4A expression was induced with 0.5 mM Isopropyl β-D-1-thiogalactopyranoside (IPTG) for 22 hr at 20° C. A typical fermentation (10 L) yielded approximately 80 g of wet cell paste. The cells were resuspended in lysis buffer (10 mL/g) consisting of 25 mM N-(2-Hydroxyethyl)piperazine-N′-(2-Ethane Sulfonic acid) (HEPES), pH7.5, 20% glycerol, 500 mM Sodium Chloride (NaCl), 0.5% Triton-X100, 1 microgram/milliliter (“μg/mL”) lysozyme, 5 mM Magnesium Chloride (MgCl2), 1 ug/ml DnaseI, 5 mM β-Mercaptoethanol (βME), Protease inhibitor—Ethylenediamine Tetraacetic acid (EDTA) free (Roche), homogenized and incubated for 20 mins at 4° C. The homogenate was sonicated and clarified by ultra-centrifugation at 235000 g for 1 hr at 4° C. Imidazole was added to the supernatant to a final concentration of 15 mM and the pH adjusted to 8.0. The crude protein extract was loaded on a Nickel-Nitrilotriacetic acid (Ni-NTA) column pre-equilibrated with buffer B (25 mM HEPES, pH8.0, 20% glycerol, 500 mM NaCl, 0.5% Triton-X100, 15 mM imidazole, 5 mM βME). The sample was loaded at a flow rate of 1 mL/min. The column was washed with 15 column volumes of buffer C (same as buffer B except with 0.2% Triton-X100). The protein was eluted with 5 column volumes of buffer D (same as buffer C except with 200 mM Imidazole). […]

Which IC50 does the source give for `COc1ccc2c(O[C@@H]3C[C@H]4C(=O)N[C@]5(C(=O)O)C[C@H]5/C=C\CCCSC(C)(C)[C@H](NC(=O)OC(C)(C)C)C(=O)N4C3)nccc2c1` [Compound 79, (1S,4R,6S,14R,18R)-7-cis-14-tert-Butoxycarbonylamino-13,13-dimethyl-18-(6-methoxy-isoquinolin-1-yloxy)-2,15-dioxo-12-thia-3,16-diazatricyclo[14.3.0.0^4,6]nonadec-7-ene-4-carboxylic acid] here?
Its IC50 is 5 to 50 µM.

`COc1ccc2c(OC3CC4C(=O)NC5(C(=O)O)CC5C=CCCCCCC(NC(=O)OC(C)(C)C)C(=O)N4C3)nccc2c1` (stereo not shown) [Compound 17A] was tested. Which IC50 did it give?
Its IC50 is under 0.05 µM.

Same assay, conditions: NS3/4A BMS strain; activity range symbols

For `CC(C)OC(=O)N[C@H]1CCCCC/C=C\[C@@H]2C[C@@]2(C(=O)NS(=O)(=O)C2CC2)NC(=O)[C@@H]2C[C@@H](Oc3nccc4ccccc34)CN2C1=O` [Compound 16, [4-Cyclopropanesulfonylaminocarbonyl-18-(isoquinolin-1-yloxy)-2,15-dioxo-3,16-diaza-tricyclo[14.3.0.0^4,6]nonadec-7-en-14-yl]-carbamic acid isopropyl ester], which IC50 is on record?
The IC50 was under 0.05 µM.

Which IC50 does the source give for `CCC1(S(=O)(=O)NC(=O)C23CC2C=CCCCCCC(NC(=O)OC(C)(C)C)C(=O)N2CC(Oc4nccc5cc(OC)ccc45)CC2C(=O)N3)CC1` (stereo not shown) [Compound 54] here?
The IC50 was under 0.05 µM.

`COc1ccc2c(OC3CC4C(=O)NC5(C(=O)NS(=O)(=O)C6(C)CC6)CC5C=CCCCOC(C)C(NC(=O)NC5CCCC5)C(=O)N4C3)nccc2c1` (stereo not shown) [Compound 69] was tested. Which IC50 did it give?
Its IC50 is under 0.05 µM.

Which IC50 does the source give for `COc1ccc2c(OC3CC4C(=O)NC5(C(=O)NS(=O)(=O)C6(C)CC6)CC5C=CCCCOC(C)C(NC(=O)OC(C)(C)C)C(=O)N4C3)nccc2c1` (stereo not shown) [Compound 66] here?
The IC50 was under 0.05 µM.

Which IC50 does the source give for `CCCNC(=O)NC1CCCCCC=CC2CC2(C(=O)NS(=O)(=O)C2CC2)NC(=O)C2CC(Oc3nccc4ccccc34)CN2C1=O` (stereo not shown) [Compound 23] here?
Its IC50 is under 0.05 µM.

With `COc1ccc2c(OC3CC4C(=O)NC5(C(=O)NS(=O)(=O)C6CC6)CC5C=CCOCCCC(NC(=O)OCC(C)(C)C)C(=O)N4C3)nccc2c1` (stereo not shown) [Compound 32] as the molecule, how does the IC50 read?
The IC50 was under 0.05 µM.

For `CC(C)S(=O)(=O)NC(=O)[C@@]12C[C@H]1/C=C\CCCCC[C@H](NC(=O)OC(C)(C)C)C(=O)N1C[C@H](Oc3nccc4ccccc34)C[C@H]1C(=O)N2` [Compound 3, [18-(Isoquinolin-1-yloxy)-2,15-dioxo-4-(propane-2-sulfonylaminocarbonyl)-3,16-diaza-tricyclo-[14.3.0.0^4,6]nonadec-7-en-14-yl]-carbamic acid tert-butyl ester], which IC50 is on record?
The IC50 was under 0.05 µM.

With `COc1ccc2c(OC3CC4C(=O)NC5(C(=O)NS(=O)(=O)C6CC6)CC5C=CCCCOC(C)C(NC(=O)NC5CCCC5)C(=O)N4C3)nccc2c1` (stereo not shown) [Compound 65] as the molecule, how does the IC50 read?
Its IC50 is under 0.05 µM.

Which IC50 does the source give for `COCC(=O)NC1CCCCCC=CC2CC2(C(=O)NS(=O)(=O)C2CC2)NC(=O)C2CC(Oc3nccc4ccccc34)CN2C1=O` (stereo not shown) [Compound 24] here?
Its IC50 is under 0.05 µM.

Which IC50 does the source give for `COc1ccc2c(OC3CC4C(=O)NC5(C(=O)NS(=O)(=O)C6CC6)CC5C=CCOCCCC(NC(=O)OC(C)(C)C)C(=O)N4C3)nccc2c1` (stereo not shown) [Compound 28, [4-Cyclopropanesulfonylaminocarbonyl-18-(6-methoxy-isoquinolin-1-yloxy)-2,15-dioxo-10-oxa-3,16-diaza-tricyclo[14.3.0.0^4,6]nonadec-7-en-14-yl]-carbamic acid tert-butyl ester] here?
The IC50 was under 0.05 µM.

With `COc1ccc2c(OC3CC4C(=O)NC5(C(=O)NS(=O)(=O)C6CC6)CC5C=CCOCCCC(NC(=O)OC(C)C)C(=O)N4C3)nccc2c1` (stereo not shown) [Compound 31] as the molecule, how does the IC50 read?
Its IC50 is under 0.05 µM.

`O=C(CC1CC1)NC1CCCCCC=CC2CC2(C(=O)NS(=O)(=O)C2CC2)NC(=O)C2CC(Oc3nccc4ccccc34)CN2C1=O` (stereo not shown) [Compound 22] was tested. Which IC50 did it give?
Its IC50 is under 0.05 µM.

Which IC50 does the source give for `COc1ccc2c(OC3CC4C(=O)NC5(C(=O)NS(=O)(=O)C6CC6)CC5C=CCCCCCC(NC(=O)N5CCCC5)C(=O)N4C3)nccc2c1` (stereo not shown) [Compound 60] here?
Its IC50 is under 0.05 µM.

Which IC50 does the source give for `COc1ccc2c(OC3C[C@H]4C(=O)N[C@]5(C(=O)NS(=O)(=O)C6CC6)C[C@H]5/C=C\CCCSC[C@H](NC(=O)OC(C)(C)C)C(=O)N4C3)nccc2c1` (stereo partly shown) [Compound 18B, [4-Cyclopropanesulfonylaminocarbonyl-18-(6-methoxy-isoquinolin-1-yloxy)-2,15-dioxo-12-thia-3,16-diaza-tricyclo[14.3.0.0^4,6]nonadec-7-en-14-yl]-carbamic acid tert-butyl ester] here?
The IC50 was under 0.05 µM.

`CCC1(S(=O)(=O)NC(=O)C23CC2C=CCCCSCC(NC(=O)NC2CCCC2)C(=O)N2CC(Oc4nccc5cc(OC)ccc45)CC2C(=O)N3)CC1` (stereo not shown) [Compound 46] was tested. Which IC50 did it give?
The IC50 was under 0.05 µM.

How did the IC50 turn out when `CCC1(S(=O)(=O)NC(=O)C23CC2C=CCOCCCC(NC(=O)OC(C)(C)C)C(=O)N2CC(Oc4nccc5cc(OC)ccc45)CC2C(=O)N3)CC1` (stereo not shown) [Compound 30] was run?
The IC50 was under 0.05 µM.

`CC(C)(C)OC(=O)N[C@H]1CCCCC/C=C\[C@@H]2C[C@@]2(C(=O)NS(=O)(=O)C2(Cc3ccccc3)CC2)NC(=O)[C@@H]2C[C@@H](Oc3nccc4ccccc34)CN2C1=O` [Compound 5, [4-(1-Benzyl-cyclopropanesulfonylaminocarbonyl)-18-(isoquinolin-1-yloxy)-2,15-dioxo-3,16-diaza-tricyclo[14.3.0.0^4,6]nonadec-7-en-14-yl]-carbamic acid tert-butyl ester] was tested. Which IC50 did it give?
The IC50 was under 0.05 µM.

With `COc1ccc2c(OC3CC4C(=O)NC5(C(=O)NS(=O)(=O)C6CC6)CC5C=CCCCOC(C)C(NC(=O)OCC(C)(C)C)C(=O)N4C3)nccc2c1` (stereo not shown) [Compound 63] as the molecule, how does the IC50 read?
Its IC50 is under 0.05 µM.

With `CC(C)(CCl)OC(=O)NC1CCCCCC=CC2CC2(C(=O)NS(=O)(=O)C2CC2)NC(=O)C2CC(Oc3nccc4ccccc34)CN2C1=O` (stereo not shown) [Compound 52] as the molecule, how does the IC50 read?
Its IC50 is under 0.05 µM.

Which IC50 does the source give for `CC(C)(C)OC(=O)N[C@H]1CCCCC/C=C\[C@@H]2C[C@@]2(C(=O)NS(=O)(=O)C2CCC2)NC(=O)[C@@H]2C[C@@H](Oc3nccc4ccccc34)CN2C1=O` [Compound 9, [4-Cyclobutanesulfonylaminocarbonyl-18-(isoquinolin-1-yloxy)-2,15-dioxo-3,16-diaza-tricyclo[14.3.0.0^4,6]nonadec-7-en-14-yl]-carbamic acid tert-butyl ester] here?
Its IC50 is under 0.05 µM.

Which IC50 does the source give for `COc1ccc2c(OC3CC4C(=O)NC5(C(=O)NS(=O)(=O)C6(C)CC6)CC5C=CCCCOC(C)C(NC(=O)OCC(C)(C)C)C(=O)N4C3)nccc2c1` (stereo not shown) [Compound 67] here?
The IC50 was under 0.05 µM.

Which IC50 does the source give for `CCC1(S(=O)(=O)NC(=O)C23CC2C=CCCCOC(C)C(NC(=O)NC2CCCC2)C(=O)N2CC(Oc4nccc5cc(OC)ccc45)CC2C(=O)N3)CC1` (stereo not shown) [Compound 73] here?
Its IC50 is under 0.05 µM.

Which IC50 does the source give for `N[C@H]1CCCCC/C=C\[C@@H]2C[C@@]2(C(=O)NS(=O)(=O)C2CC2)NC(=O)[C@@H]2C[C@@H](Oc3nccc4ccccc34)CN2C1=O` [Compound 11, Cyclopropanesulfonic acid [14-amino-18-(isoquinolin-1-yloxy)-2,15-dioxo-3,16-diaza-tricyclo[14.3.0.0^4,6]nonadec-7-ene-4-carbonyl]-amide bis hydrochloride] here?
Its IC50 is under 0.05 µM.
